Assay [1] deals with Protein kinase C theta type (Homo sapiens, UniProt Q04759).
The target in assay [2] is Serine/threonine-protein kinase 24 (Homo sapiens, UniProt Q9Y6E0).
Assay [3] concerns the target Guanine nucleotide-binding protein G(i) subunit alpha-2 (Homo sapiens, UniProt P04899).
Assay [4] has as its target Proto-oncogene tyrosine-protein kinase receptor Ret (Homo sapiens, UniProt P07949).
Assay [5] addresses Dual specificity protein kinase CLK3 (Homo sapiens, UniProt P49761). In kind it is subcellular, K-562, COLO 205, SK-N-BE(2) and MV-4-11, Cell lysate. The conditions noted are these: read-out: Kd apparent.
Assay [6] addresses G protein-coupled receptor kinase 6 (Homo sapiens, UniProt P43250).
Assay [7] has as its target Choline-phosphate cytidylyltransferase A (Homo sapiens, UniProt P49585).
A further assay addresses Ephrin type-A receptor 7 (Homo sapiens, UniProt Q15375).
For assay [8], the target named is T1, Long-chain-fatty-acid--CoA ligase 5 (Homo sapiens, UniProt Q9ULC5).
T1 sequence (Q9ULC5 whole entry): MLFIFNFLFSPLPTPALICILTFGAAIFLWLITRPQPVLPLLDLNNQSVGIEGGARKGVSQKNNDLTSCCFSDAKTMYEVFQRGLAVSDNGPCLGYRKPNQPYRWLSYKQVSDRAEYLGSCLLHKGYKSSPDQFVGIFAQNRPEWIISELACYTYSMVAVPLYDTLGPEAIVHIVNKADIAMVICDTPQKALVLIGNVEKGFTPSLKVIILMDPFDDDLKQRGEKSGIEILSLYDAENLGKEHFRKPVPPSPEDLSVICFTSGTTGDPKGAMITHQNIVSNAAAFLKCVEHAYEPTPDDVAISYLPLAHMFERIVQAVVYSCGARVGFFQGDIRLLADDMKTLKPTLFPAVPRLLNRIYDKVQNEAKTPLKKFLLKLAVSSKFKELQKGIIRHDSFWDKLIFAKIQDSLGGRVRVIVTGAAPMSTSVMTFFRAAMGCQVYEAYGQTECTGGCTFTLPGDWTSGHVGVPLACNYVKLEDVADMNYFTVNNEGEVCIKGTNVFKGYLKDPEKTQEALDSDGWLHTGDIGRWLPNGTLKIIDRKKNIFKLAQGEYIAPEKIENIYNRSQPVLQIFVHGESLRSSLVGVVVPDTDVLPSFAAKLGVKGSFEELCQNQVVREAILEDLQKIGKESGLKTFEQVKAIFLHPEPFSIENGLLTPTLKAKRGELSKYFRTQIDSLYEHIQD

The target in assay [9] is Mitogen-activated protein kinase 14 (Homo sapiens, UniProt Q16539).
Assay [10] concerns the target Membrane-associated progesterone receptor component 1 (Homo sapiens, UniProt O00264).
In assay [11] the target is Cell division cycle 7-related protein kinase (Homo sapiens, UniProt O00311).
The target in assay [12] is T2, Dual specificity protein kinase TTK (Homo sapiens, UniProt P33981).
T2 sequence (P33981 whole entry): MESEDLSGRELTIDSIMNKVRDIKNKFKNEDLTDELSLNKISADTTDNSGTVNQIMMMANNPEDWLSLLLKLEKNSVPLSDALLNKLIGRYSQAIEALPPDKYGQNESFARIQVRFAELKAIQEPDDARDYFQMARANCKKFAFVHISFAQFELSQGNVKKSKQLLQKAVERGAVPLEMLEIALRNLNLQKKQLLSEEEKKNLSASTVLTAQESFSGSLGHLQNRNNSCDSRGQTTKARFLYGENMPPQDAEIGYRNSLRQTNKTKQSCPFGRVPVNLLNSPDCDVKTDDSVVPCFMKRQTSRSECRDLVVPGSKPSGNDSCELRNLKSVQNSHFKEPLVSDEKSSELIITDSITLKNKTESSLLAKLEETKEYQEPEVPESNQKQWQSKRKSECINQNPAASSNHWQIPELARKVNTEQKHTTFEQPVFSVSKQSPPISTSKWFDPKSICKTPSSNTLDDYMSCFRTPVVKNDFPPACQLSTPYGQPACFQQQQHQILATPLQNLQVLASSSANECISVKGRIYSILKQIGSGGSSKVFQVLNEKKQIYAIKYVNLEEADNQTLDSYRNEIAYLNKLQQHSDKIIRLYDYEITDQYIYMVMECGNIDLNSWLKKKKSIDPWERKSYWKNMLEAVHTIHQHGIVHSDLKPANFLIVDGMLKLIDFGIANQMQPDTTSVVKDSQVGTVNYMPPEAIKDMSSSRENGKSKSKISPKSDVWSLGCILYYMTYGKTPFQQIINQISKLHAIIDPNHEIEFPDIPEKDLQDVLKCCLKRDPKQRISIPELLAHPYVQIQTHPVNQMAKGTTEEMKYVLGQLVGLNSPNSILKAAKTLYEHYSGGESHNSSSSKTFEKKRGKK

A further assay has as its target T3, UMP-CMP kinase (Homo sapiens, UniProt P30085).
T3 sequence (P30085 whole entry): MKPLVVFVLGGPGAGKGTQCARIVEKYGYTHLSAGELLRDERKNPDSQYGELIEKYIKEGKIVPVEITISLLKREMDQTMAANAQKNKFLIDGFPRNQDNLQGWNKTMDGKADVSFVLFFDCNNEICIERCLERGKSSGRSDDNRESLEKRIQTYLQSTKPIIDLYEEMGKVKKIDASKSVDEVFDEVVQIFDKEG

The next assay concerns the target Obg-like ATPase 1 (Homo sapiens, UniProt Q9NTK5).
Assay [13] concerns the target Phosphatidylethanolamine-binding protein 1 (Homo sapiens, UniProt P30086).
Assay [14] concerns the target T4, Adenine phosphoribosyltransferase (Homo sapiens, UniProt P07741).
T4 sequence (P07741 whole entry): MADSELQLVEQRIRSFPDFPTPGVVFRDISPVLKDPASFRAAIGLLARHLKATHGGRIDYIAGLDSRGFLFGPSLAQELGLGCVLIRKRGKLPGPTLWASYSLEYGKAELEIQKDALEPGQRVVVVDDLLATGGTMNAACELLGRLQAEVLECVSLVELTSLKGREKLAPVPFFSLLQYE

Assay [15] addresses Serine/threonine-protein kinase PLK1 (Homo sapiens, UniProt P53350).
The target in assay [16] is Dual specificity protein kinase CLK2 (Homo sapiens, UniProt P49760).
In assay [17] the target is Epidermal growth factor receptor (Homo sapiens, UniProt P00533).

Active and inactive are the calls of the source.
Further: in the data inactive means no Kd found up to 30 µM.

Sequence of Epidermal growth factor receptor (P00533 whole entry): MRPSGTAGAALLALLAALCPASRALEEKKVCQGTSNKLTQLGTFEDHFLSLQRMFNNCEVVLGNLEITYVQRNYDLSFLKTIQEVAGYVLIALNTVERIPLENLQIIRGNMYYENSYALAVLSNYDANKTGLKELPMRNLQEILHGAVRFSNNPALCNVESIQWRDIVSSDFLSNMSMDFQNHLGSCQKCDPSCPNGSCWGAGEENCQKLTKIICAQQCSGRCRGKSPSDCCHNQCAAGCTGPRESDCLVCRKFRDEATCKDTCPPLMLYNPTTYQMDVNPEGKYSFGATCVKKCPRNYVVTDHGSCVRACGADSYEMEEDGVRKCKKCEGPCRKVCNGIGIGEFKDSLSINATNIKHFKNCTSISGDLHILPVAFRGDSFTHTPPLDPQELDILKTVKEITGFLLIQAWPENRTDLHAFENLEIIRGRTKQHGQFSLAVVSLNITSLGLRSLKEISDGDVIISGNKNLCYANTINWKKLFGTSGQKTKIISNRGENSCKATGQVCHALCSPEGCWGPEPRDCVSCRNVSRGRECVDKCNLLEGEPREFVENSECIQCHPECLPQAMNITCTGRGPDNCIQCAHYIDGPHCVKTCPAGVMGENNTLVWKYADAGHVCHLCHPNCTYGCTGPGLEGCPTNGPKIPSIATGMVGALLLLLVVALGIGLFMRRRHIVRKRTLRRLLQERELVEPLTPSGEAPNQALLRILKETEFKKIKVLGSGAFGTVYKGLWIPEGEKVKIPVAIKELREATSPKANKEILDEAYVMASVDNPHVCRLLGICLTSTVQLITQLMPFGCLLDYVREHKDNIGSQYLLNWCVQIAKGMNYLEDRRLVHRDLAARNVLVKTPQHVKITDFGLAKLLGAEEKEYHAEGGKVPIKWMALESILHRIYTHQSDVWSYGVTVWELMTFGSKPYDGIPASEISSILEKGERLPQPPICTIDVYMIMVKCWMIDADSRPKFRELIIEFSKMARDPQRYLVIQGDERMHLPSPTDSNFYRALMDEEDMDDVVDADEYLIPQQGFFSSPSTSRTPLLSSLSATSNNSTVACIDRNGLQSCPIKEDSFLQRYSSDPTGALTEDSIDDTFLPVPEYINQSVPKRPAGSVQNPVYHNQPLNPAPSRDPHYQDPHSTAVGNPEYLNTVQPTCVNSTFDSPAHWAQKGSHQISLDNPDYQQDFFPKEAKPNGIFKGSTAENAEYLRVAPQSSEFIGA
Sequence of Guanine nucleotide-binding protein G(i) subunit alpha-2 (P04899 whole entry): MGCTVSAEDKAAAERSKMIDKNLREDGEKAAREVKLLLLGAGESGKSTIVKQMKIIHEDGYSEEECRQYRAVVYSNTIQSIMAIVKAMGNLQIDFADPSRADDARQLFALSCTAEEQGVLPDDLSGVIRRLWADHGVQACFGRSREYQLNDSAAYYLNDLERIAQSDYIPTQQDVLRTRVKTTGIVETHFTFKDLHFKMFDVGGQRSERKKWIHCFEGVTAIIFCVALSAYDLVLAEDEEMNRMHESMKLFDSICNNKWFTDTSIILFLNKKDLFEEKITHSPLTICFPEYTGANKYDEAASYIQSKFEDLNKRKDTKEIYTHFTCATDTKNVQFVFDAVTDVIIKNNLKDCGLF
Sequence of Phosphatidylethanolamine-binding protein 1 (P30086 whole entry): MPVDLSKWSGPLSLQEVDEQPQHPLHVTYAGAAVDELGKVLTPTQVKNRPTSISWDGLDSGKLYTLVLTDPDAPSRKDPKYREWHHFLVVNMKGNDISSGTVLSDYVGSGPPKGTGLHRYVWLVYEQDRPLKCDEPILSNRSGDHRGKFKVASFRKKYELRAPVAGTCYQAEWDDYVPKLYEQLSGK
Sequence of Dual specificity protein kinase CLK3 (P49761 whole entry): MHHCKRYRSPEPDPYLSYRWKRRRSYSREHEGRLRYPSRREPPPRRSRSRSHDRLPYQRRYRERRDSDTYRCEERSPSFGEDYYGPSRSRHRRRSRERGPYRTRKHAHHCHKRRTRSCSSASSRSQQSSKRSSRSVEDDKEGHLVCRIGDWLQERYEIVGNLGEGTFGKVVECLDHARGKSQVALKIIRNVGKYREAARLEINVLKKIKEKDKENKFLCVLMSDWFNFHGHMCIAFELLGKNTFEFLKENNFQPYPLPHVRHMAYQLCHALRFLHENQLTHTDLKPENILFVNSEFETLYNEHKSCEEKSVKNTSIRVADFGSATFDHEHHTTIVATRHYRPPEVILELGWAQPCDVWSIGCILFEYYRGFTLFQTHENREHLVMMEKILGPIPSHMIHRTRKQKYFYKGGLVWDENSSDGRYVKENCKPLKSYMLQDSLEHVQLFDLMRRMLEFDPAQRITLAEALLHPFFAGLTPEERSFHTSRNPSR
Sequence of Proto-oncogene tyrosine-protein kinase receptor Ret (P07949 whole entry): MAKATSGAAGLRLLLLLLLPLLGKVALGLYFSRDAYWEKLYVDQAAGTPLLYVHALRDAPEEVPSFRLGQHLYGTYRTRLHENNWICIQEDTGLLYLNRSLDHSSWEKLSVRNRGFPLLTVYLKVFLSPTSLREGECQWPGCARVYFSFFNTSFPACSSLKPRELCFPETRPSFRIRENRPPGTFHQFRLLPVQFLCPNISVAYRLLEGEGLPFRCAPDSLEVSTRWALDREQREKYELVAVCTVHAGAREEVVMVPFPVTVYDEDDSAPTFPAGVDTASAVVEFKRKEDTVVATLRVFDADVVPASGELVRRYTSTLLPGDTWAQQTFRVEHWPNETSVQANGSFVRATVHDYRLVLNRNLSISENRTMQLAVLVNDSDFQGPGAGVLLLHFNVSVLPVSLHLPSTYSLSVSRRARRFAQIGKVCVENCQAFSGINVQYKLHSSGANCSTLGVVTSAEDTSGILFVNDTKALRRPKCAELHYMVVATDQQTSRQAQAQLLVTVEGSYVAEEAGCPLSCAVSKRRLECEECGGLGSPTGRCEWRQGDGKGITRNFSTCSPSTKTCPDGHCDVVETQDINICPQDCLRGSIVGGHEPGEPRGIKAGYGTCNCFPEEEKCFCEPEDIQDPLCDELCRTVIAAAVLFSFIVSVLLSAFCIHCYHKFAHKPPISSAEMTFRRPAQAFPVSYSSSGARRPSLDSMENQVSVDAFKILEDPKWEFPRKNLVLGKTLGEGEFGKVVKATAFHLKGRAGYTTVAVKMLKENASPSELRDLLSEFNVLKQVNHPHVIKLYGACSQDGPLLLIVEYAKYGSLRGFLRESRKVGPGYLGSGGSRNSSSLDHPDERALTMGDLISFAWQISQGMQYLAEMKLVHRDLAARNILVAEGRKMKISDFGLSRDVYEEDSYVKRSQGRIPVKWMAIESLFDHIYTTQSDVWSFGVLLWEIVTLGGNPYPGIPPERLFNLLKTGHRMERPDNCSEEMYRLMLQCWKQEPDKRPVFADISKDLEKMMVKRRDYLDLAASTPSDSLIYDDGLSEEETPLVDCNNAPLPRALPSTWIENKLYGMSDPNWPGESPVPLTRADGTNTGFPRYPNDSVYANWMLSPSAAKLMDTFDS
Sequence of Choline-phosphate cytidylyltransferase A (P49585 whole entry): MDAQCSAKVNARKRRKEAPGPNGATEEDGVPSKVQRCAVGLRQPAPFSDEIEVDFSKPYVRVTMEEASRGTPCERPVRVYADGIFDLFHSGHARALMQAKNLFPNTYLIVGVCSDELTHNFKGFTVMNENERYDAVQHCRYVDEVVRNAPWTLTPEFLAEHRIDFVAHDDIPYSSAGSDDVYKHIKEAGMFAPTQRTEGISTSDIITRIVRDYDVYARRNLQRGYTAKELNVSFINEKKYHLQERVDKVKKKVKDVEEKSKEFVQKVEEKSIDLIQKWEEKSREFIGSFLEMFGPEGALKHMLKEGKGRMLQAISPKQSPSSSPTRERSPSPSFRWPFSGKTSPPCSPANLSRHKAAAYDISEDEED
Sequence of Dual specificity protein kinase CLK2 (P49760 whole entry): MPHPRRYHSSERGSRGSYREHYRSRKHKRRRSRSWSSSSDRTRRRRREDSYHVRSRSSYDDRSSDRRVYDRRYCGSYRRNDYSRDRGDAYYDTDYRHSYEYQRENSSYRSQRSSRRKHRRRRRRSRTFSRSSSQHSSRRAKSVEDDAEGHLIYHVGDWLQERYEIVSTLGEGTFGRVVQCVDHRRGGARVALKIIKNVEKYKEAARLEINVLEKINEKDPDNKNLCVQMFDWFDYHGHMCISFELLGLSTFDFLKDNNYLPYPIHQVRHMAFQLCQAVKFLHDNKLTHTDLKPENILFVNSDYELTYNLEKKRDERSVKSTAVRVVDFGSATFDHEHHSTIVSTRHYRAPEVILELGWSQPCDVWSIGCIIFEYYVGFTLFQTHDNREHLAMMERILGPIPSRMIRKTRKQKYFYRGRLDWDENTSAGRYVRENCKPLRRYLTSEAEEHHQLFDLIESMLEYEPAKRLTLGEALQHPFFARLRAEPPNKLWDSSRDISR
Sequence of Protein kinase C theta type (Q04759 whole entry): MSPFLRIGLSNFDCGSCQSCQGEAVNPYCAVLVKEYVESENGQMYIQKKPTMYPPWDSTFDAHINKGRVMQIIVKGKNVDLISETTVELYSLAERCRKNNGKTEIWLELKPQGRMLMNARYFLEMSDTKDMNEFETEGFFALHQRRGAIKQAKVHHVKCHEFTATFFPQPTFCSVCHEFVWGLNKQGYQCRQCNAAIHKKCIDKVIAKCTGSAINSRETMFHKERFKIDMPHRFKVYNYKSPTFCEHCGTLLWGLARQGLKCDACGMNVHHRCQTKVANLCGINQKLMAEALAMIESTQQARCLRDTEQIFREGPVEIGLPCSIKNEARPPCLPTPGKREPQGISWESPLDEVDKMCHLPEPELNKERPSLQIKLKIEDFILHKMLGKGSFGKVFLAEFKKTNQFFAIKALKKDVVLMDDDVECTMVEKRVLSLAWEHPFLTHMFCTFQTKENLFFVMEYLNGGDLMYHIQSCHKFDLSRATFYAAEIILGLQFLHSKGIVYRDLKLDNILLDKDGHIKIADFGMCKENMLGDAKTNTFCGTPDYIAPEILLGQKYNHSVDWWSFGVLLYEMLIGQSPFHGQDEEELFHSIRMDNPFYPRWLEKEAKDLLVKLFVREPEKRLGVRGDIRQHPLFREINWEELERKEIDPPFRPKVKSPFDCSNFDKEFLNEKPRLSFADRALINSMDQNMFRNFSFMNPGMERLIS

As for `CNC(=O)CN1CCC(Oc2cc3c(Nc4cccc(Cl)c4F)ncnc3cc2OC)CC1` [SAPITINIB], the Kd was > 30 µM (inactive) in assay [1]; > 30 µM (inactive) in assay [2]; > 30 µM (inactive) in assay [3]; 0.39 µM (active) in assay [4]; > 30 µM (inactive) in assay [5]; > 30 µM (inactive) in assay [6]. For the same molecule, the Kd (in [7]; on Ephrin type-A receptor 7; in assay [8]; in assay [9]; in assay [10]; in assay [11]) was > 30 µM (inactive) in each case. The Kd in assay [12] is > 30 µM (inactive).

As for `Cc1cc(Nc2cc(N3CCN(C)CC3)nc(/C=C/c3ccccc3)n2)n[nH]1` [ENMD-2076], the Kd (in assay [2]; in assay [3]; at UMP-CMP kinase; in assay [5]; at Obg-like ATPase 1; in assay [6]) was > 30 µM (inactive) in each case. The Kd in assay [7], in assay [13], in [8], in [10], in assay [14] and in assay [12] was > 30 µM (inactive) in each case.

`Cc1ccc(-n2nc(C(C)(C)C)cc2NC(=O)NCc2cc(F)ccc2Oc2ccc3c(cnn3CCO)c2)cc1` [PEXMETINIB]: the Kd was > 30 µM (inactive) in assay [1]; > 30 µM (inactive) in [2]; > 30 µM (inactive) in [3]; > 30 µM (inactive) on UMP-CMP kinase; 1.2 µM (active) in [4]; > 30 µM (inactive) in assay [15]. Also, the Kd at Obg-like ATPase 1 is > 30 µM (inactive); in assay [6], > 30 µM (inactive); in assay [7], > 30 µM (inactive); on Ephrin type-A receptor 7, 3.31 µM (active); in assay [13] it was > 30 µM (inactive); in assay [8], > 30 µM (inactive). The Kd in [10], in assay [16], in [11], in assay [14], in [17] and in assay [12] was > 30 µM (inactive) each time.

With `CNS(=O)(=O)Nc1nccc(Cc2c(C)c3ccc(Oc4ncccn4)cc3oc2=O)c1F` [AVUTOMETINIB], the Kd (in [1]; in [2]; in [3]; in [4]; in assay [5]; on Obg-like ATPase 1) was > 30 µM (inactive) in each case. Further, the Kd (at Ephrin type-A receptor 7; in assay [13]; in assay [9]; in assay [10]; in assay [16]; in assay [11]) was > 30 µM (inactive) in each case. The Kd in assay [14], in [17] and in [12] was > 30 µM (inactive) in each case.

With `C[C@@H]1CN(Cc2ccc(F)cc2)[C@@H](C)CN1C(=O)c1cc2c(C(=O)C(=O)N(C)C)cn(C)c2cc1Cl` [TALMAPIMOD], the Kd (in [1]; in assay [3]; on UMP-CMP kinase; in [4]; in assay [5]; at Obg-like ATPase 1) was > 30 µM (inactive) each time. The Kd (in assay [6]; on Ephrin type-A receptor 7; in assay [13]; in [8]; in assay [10]; in assay [16]) was > 30 µM (inactive) throughout. In addition, the Kd in assay [11], in [14], in assay [17] and in [12] was > 30 µM (inactive) throughout.

As to `Cc1cc2c(F)c(Oc3ncnn4cc(OC[C@@H](C)OC(=O)[C@H](C)N)c(C)c34)ccc2[nH]1` [BRIVANIB ALANINATE], the Kd in assay [1] is > 30 µM (inactive); in assay [2] it was > 30 µM (inactive); in [3], > 30 µM (inactive); on UMP-CMP kinase, > 30 µM (inactive); in assay [4], 7.48 µM (active); in assay [5] it was > 30 µM (inactive). Also, the Kd (in assay [6]; in assay [7]; on Ephrin type-A receptor 7; in assay [13]; in assay [8]; in assay [9]) was > 30 µM (inactive) in each case. In addition, the Kd in [16], in assay [14], in assay [17] and in assay [12] was > 30 µM (inactive) throughout.

In the case of `COC(=O)N[C@@H](C)CNc1nccc(-c2cn(C(C)C)nc2-c2cc(Cl)cc(NS(C)(=O)=O)c2F)n1` [ENCORAFENIB], the Kd (in [1]; in assay [2]; in assay [3]; at UMP-CMP kinase; in assay [4]; in assay [5]) was > 30 µM (inactive) each time. Moreover, the Kd on Obg-like ATPase 1 is > 30 µM (inactive); in [6] it was > 30 µM (inactive); in [7], 0.041 µM; at Ephrin type-A receptor 7, > 30 µM (inactive); in [13], > 30 µM (inactive); in [9], > 30 µM (inactive). Besides, the Kd is 0.204 µM in [10]; > 30 µM (inactive) in [16]; > 30 µM (inactive) in assay [11]; > 30 µM (inactive) in assay [14]; > 30 µM (inactive) in assay [17]; > 30 µM (inactive) in assay [12].

Values taken from ChEMBL document CHEMBL3991601, “The target landscape of clinical kinase drugs” (Science, 2017).
